Results taken from PMC8901119 (Chemical Science, 2021).
“Also recorded” adds a separate entry of the source. Non-standard residues stand in square brackets, D forms with d. Ala(7-MeO-coumarin-4-yl) = COc1ccc2c(C[C@H](N)C(=O)O)cc(=O)oc2c1

How the values were obtained:
HepG2 whole cell lysate = details: human, 37 °C, up to 24 hours
[1] = HepG2 whole cell lysate in CL assay buffer; details: human, 37 °C, up to 30 minutes (R1A); 24 hours (RS1A)
cathepsin B (Cts B) = details: human, 27 °C, up to 100 min

fragment found (HepG2 whole cell lysate): μHLFR, 5 mins; also recorded: Aμ, 5 mins
fragment found [1]: µHLFR; Aµ, 5 mins
cleaved bond (cathepsin B (Cts B)): R-A
Substance: μHLFRAμ (H-[Ala(7-MeO-coumarin-4-yl)]HLFRA[Ala(7-MeO-coumarin-4-yl)]-OH; SMILES COc1ccc2c(C[C@H](NC(=O)[C@H](C)NC(=O)[C@H](CCCNC(=N)N)NC(=O)[C@H](Cc3ccccc3)NC(=O)[C@H](CC(C)C)NC(=O)[C@H](Cc3c[nH]cn3)NC(=O)[C@@H](N)Cc3cc(=O)oc4cc(OC)ccc34)C(=O)O)cc(=O)oc2c1)
